pIC50: −log10 of the molar value. Read-outs that look alike come from different tables or passages of the source.
Columns and labels:
[1] = system: HCC70 cells; experiment: Inhibition of cell proliferation, CyQUANT Direct, HCC70; format: cell-based, human; conditions: HCC70 triple negative breast cancer cells, 72-hour, read-out: HCC 70 proliferation calculated IC50
Method: (§1) HCC70 and MB453 cells are cell lines derived from human triple negative breast cancer. COV318 and COV504 cells are cell lines derived from human ovarian cancer. Representative compounds of the invention were tested at different concentrations (from 4 μM to 126.4 pM; 0.5 log serial dilutions) for their ability to inhibit the proliferation of each of these cell lines. Known CDK inhibitors dinaciclib or N-((1S,3R)-3-((5-chloro-4-(1H-indol-3-yl) pyrimidin-2-yl)amino)cyclohexyl)-5-((E)-4-(dimethylamino)but-2-enamido)picolinamide and triptolide were used as positive controls. Cells were seeded at approximately 2,000 cells/well and grown in ATCC-formulated RPMI-1640 Medium (ATCC 30-2001)+10% FBS. The cells were cultured at 37° C. in a humidified chamber in the presence of 5% CO2. Proliferation assays were conducted over a 72-hour time period. CyQUANT® Direct Cell Proliferation Assay (Life Technologies, Chicago, IL USA) was used to assess the anti-proliferative effects of the compounds following manufacturer's directions and utilizing the reagents supplied with the CyQUANT® Direct Cell kit.

[2] = target: CDK12 (aa686-1082)/Cyclin K complex (Homo sapiens, UniProt Q9NYV4); experiment: CDK12 kinase inhibition assay (Caliper/LabChip EZ Reader)
Sequence of CDK12 (aa686-1082)/Cyclin K complex (Q9NYV4 686-1082): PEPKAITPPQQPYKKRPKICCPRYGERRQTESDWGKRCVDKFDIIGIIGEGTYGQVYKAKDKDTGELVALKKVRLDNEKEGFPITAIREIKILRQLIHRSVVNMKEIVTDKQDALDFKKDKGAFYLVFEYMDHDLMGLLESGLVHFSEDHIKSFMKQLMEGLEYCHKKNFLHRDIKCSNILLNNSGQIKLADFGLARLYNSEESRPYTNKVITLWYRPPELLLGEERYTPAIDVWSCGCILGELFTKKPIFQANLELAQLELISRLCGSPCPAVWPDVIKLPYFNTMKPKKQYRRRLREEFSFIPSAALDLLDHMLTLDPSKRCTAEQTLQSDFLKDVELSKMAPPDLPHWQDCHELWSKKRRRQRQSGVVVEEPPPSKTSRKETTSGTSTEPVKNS
Sequence of CDK12 (aa686-1082)/Cyclin K complex (O75909 whole entry partner, the tested form may be a part): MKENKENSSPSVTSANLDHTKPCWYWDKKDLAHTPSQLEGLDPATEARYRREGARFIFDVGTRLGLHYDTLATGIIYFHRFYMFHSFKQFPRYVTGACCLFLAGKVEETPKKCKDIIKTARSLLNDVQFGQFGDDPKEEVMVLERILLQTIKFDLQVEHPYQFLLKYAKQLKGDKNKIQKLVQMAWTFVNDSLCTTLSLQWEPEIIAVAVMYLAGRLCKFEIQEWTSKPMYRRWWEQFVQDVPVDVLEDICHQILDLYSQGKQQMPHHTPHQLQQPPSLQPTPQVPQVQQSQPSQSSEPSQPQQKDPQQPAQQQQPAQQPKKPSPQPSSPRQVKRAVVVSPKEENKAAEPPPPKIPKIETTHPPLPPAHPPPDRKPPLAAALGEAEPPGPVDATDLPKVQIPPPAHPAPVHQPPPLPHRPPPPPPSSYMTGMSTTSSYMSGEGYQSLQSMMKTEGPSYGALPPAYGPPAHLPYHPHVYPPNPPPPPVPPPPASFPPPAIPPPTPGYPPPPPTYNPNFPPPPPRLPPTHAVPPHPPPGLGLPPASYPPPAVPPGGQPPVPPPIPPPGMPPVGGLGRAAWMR
Method: (§2) Compounds of the invention were assayed for inhibition of CDK7, CDK9, CDK12, and CDK2 activity at Biortus Biosciences (Jiangyin, Jiangsu Province, P.R. of China) using kinase assays for each CDK developed with a Caliper/LabChip EZ Reader (Perkin Elmer, Waltham, MA).
(§3) Furthermore, the CDK9 inhibition assay used CDK9/Cyclin T1 complex (8 nM) and “5-FAM-CDK9tide” peptide substrate (2 μM, synthesized fluorophore-labeled peptide with the following sequence: 5-FAM-GSRTPMY-NH2 (SEQ ID NO:2) where 5-FAM is defined above and NH2 signifies a C-terminal amide) with 10 mM MgCl2 in the buffer composition listed above. The CDK12 inhibition assay used CDK12 (aa686-1082)/Cyclin K complex (50 nM) and “5-FAM-CDK9tide” (2 μM) as defined above, with 2 mM MgCl2 in the buffer composition above. Additionally, the CDK2 inhibition assay used CDK2/Cyclin E1 complex (0.5 nM) and “5-FAM-CDK7tide” (2 μM) as defined above, with 2 mM MgCl2 in the buffer composition listed above.
(§4) The incubation period at 27° C. for each CDK inhibition assay was chosen such that the fraction of phosphorylated peptide product produced in each assay, relative to the total peptide concentration, was approximately 20% (±5%) for the uninhibited kinase (35 min. for CDK7, 35 min. for CDK2, 3 hr. for CDK12, 15 min. for CDK9).

[3] = target: CDK7/Cyclin H/MAT1 complex (Homo sapiens, UniProt P50613); experiment: CDK7 kinase inhibition assay (Caliper/LabChip EZ Reader)
Sequence of CDK7/Cyclin H/MAT1 complex (P50613 whole entry): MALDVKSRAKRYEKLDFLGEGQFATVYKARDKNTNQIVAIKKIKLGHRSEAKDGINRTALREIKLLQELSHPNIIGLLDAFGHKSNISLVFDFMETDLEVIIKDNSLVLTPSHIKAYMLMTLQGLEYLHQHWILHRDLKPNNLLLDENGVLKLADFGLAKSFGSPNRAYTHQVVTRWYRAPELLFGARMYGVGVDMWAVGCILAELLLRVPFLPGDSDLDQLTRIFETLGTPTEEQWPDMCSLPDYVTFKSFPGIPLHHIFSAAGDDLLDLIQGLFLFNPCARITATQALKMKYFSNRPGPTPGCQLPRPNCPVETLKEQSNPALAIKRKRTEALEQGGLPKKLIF
Sequence of CDK7/Cyclin H/MAT1 complex (P51946 whole entry partner): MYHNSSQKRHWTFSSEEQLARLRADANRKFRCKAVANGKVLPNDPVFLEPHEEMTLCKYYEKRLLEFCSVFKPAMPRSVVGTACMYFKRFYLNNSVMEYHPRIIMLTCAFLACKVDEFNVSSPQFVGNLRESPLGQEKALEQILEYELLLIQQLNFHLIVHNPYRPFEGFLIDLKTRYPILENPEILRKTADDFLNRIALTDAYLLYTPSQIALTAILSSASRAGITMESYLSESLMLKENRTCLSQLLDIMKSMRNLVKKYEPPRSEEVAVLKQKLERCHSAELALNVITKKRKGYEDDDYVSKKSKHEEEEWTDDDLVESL
Sequence of CDK7/Cyclin H/MAT1 complex (P51948 whole entry partner): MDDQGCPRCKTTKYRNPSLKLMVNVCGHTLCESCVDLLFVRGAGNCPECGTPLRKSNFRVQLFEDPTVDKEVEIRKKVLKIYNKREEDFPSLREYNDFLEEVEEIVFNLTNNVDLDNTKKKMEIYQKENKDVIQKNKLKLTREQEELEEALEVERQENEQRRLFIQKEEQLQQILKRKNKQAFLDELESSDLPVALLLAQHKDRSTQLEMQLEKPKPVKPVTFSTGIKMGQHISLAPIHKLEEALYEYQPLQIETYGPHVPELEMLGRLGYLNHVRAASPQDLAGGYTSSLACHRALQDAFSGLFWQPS

[4] = system: MB453 cells; experiment: Inhibition of cell proliferation, CyQUANT Direct, MB453; format: cell-based, human; conditions: MB453 triple negative breast cancer cells, 72-hour, read-out: MB 453 proliferation calculated IC50
Method: as §1

[5] = system: COV504 cells; experiment: Inhibition of cell proliferation, CyQUANT Direct, COV504; format: cell-based; conditions: Homo sapiens; COV504 ovarian cancer cells, 72-hour; read-out: COV 504 proliferation calculated IC50
Method: as §1

[6] = target: CDK2/Cyclin E1 complex (Homo sapiens, UniProt P24941); experiment: CDK2 kinase inhibition assay (Caliper/LabChip EZ Reader)
Method: as §2, §3, §4

[7] = system: COV318 cells; experiment: Inhibition of cell proliferation, CyQUANT Direct, COV318; format: cell-based; conditions: Homo sapiens; COV318 ovarian cancer cells, 72-hour; read-out: COV 318 proliferation calculated IC50
Method: as §1

[8] = target: CDK9/Cyclin T1 complex (Homo sapiens, UniProt P50750); experiment: CDK9 kinase inhibition assay (Caliper/LabChip EZ Reader)
Sequence of CDK9/Cyclin T1 complex (P50750 whole entry): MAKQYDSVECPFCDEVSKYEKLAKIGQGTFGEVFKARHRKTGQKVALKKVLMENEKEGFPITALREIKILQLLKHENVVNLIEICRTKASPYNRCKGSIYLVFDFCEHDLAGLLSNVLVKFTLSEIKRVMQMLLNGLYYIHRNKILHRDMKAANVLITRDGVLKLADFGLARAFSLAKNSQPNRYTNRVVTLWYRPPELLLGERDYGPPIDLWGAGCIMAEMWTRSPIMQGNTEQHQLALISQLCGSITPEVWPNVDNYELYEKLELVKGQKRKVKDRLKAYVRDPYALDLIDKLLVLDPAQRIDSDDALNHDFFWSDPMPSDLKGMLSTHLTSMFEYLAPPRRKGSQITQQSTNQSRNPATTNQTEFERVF
Sequence of CDK9/Cyclin T1 complex (O60563 whole entry partner): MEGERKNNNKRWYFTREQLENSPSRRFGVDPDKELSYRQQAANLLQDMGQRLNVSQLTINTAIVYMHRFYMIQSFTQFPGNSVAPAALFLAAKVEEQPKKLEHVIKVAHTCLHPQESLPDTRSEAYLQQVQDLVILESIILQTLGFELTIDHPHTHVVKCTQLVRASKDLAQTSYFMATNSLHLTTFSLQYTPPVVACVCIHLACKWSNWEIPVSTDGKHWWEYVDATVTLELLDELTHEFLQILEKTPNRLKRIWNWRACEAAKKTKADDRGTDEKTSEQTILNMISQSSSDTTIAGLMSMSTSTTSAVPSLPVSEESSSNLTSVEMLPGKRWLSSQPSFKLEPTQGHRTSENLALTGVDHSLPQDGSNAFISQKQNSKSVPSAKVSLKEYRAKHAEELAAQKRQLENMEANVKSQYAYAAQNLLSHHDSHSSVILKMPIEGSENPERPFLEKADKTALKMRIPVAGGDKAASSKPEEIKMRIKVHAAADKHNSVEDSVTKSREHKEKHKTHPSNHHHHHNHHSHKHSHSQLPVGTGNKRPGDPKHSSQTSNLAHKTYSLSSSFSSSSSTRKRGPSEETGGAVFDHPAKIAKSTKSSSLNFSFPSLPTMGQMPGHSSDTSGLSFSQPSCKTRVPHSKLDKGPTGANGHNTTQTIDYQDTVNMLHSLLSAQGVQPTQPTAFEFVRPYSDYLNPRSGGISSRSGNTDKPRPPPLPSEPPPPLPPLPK
Method: as §2, §3, §4

Compound	pIC50 ([1]; Homo sapiens)	pIC50 [2]	pIC50 [3]	pIC50 ([4]; Homo sapiens)	pIC50 [5]	pIC50 [6]	pIC50 [7]	pIC50 [8]	pIC50 [1]	pIC50 ([2]; read-out: CDK 12 calculated IC50, ATP 2 mM, 27° C., 3 hr incubation, 2 mM MgCl2)	pIC50 ([3]; read-out: CDK 7 calculated IC50, ATP 2 mM, 27° C., 35 min incubation, 6 mM MgCl2)	pIC50 [4]	pIC50 ([6]; read-out: CDK 2 calculated IC50, ATP 2 mM, 27° C., 35 min incubation, 2 mM MgCl2)	pIC50 ([8]; read-out: CDK 9 calculated IC50, ATP 2 mM, 27° C., 15 min incubation, 10 mM MgCl2)
Cc1noc(C)c1-c1ccc2c(-c3nc(N[C@H]4CCC[C@@H]4N4CC(O)C4)ncc3C(F)(F)F)c[nH]c2n1 [Compound 159, 1-[(1S,2S)-2-[[4-[6-(3,5-dimethylisoxazol-4-yl)-1H-pyrrolo[2,3-b]pyridin-3-yl]-5-(trifluoromethyl)pyrimidin-2-yl]amino]cyclopentyl] azetidin-3-ol]	> 7.00	< 6.30	> 7.52	6.30 to 7.00	6.30 to 7.00	< 6.30	< 5.70	< 6.30						
N#Cc1ccc2c(-c3nc(N[C@@H]4CNC[C@@H]4O)ncc3C(F)(F)F)c[nH]c2c1 (relative stereo) [Compound 107]	< 5.70	< 6.30	6.30 to 7.00	< 5.70	< 5.70	< 6.30	< 5.70	< 6.30						
Cc1noc(C)c1-c1ccc2c(-c3nc(N[C@@H]4C[C@@H]5CC[C@H]4N5)ncc3C(F)(F)F)c[nH]c2c1 [Compound 137, (1S,2S,4R)—N-[4-[6-(3,5-dimethylisoxazol-4-yl)-1H-indol-3-yl]-5-(trifluoromethyl)pyrimidin-2-yl]-7-azabicyclo-[2.2.1]-heptan-3-amine]	> 7.00	< 6.30	> 7.52	> 7.00	> 7.00	< 6.30	6.30 to 7.00	< 6.30						
N[C@H]1CCC[C@@H]1Nc1ncc(C(F)(F)F)c(-c2c[nH]c3cc(-c4nccs4)ccc23)n1 [Compound 117, (1S,2S)—N1-[4-(6-thiazol-2-yl-1H-indol-3-yl)-5-(trifluoromethyl)pyrimidin-2-yl]-cyclopentane-1,2-diamine]	6.30 to 7.00	< 6.30	> 7.52	6.30 to 7.00	6.30 to 7.00	< 6.30	< 5.70	< 6.30						
Cc1noc(C)c1-c1ccc2c(-c3nc(N[C@H]4C[C@H]5CC[C@@H]4N5)ncc3C(F)(F)F)c[nH]c2n1 [Compound 139]	6.30 to 7.00	< 6.30	> 7.52	6.30 to 7.00	6.30 to 7.00	< 6.30	5.70 to 6.30	< 6.30						
Cc1noc(C)c1-c1ccc2c(-c3nc(N[C@@H]4C[C@H]5CC[C@@H]4N5)ncc3C(F)(F)F)c[nH]c2c1 [Compound 138, (1R,2R,4S)—N-[4-[6-(3,5-dimethylisoxazol-4-yl)-1H-indol-3-yl]-5-(trifluoromethyl)pyrimidin-2-yl]-7-azabicyclo-[2.2.1]-heptan-3-amine]									6.30 to 7.00	< 6.30	7.00 to 7.52	6.30 to 7.00	< 6.30	< 6.30
COC1CCN([C@H]2CCC[C@@H]2Nc2ncc(C(F)(F)F)c(-c3c[nH]c4nc(-c5c(C)noc5C)ccc34)n2)C1 (stereo partly shown) [Compound 153]	6.30 to 7.00			5.70 to 6.30	6.30 to 7.00		< 5.70							
COCCN[C@@H]1CC[C@H]1Nc1ncc(C(F)(F)F)c(-c2c[nH]c3cc(C#N)ccc23)n1 [Compound 134]		< 6.30	< 6.30			< 6.30		< 6.30						
N#Cc1ccc2c(-c3nc(N[C@@H]4CC[C@H]4N4CCCC4)ncc3C(F)(F)F)c[nH]c2c1 [Compound 136, 3-[2-[[(1R,2R)-2-pyrrolidin-1-ylcyclobutyl]-amino]-5-(trifluoromethyl)pyrimidin-4-yl]-1H-indole-6-carbonitrile]		< 6.30	6.30 to 7.00			< 6.30		< 6.30						
CP(C)(=O)c1c(C(N)=O)ccc2c(-c3nc(N[C@H]4CCC[C@@H]4N)ncc3C(F)(F)F)c[nH]c12 [Compound 162, 3-[2-[[(1S,2S)-2-aminocyclopentyl]amino]-5(trifluoromethyl)pyrimidin-4-yl]-7-dimethylphosphoryl-1H-indole-6-carboxamide]			> 7.52			< 6.30		< 6.30						

— patent US11918592B2, “Inhibitors of cyclin dependent kinase 7 (CDK7)” (Syros Pharmaceuticals, Inc., priority 2018, dated 2024)
